Test results taken from patent US11841361B2, “Microfluidic proximal tubule kidney-on-chip” (EMULATE, INC., priority 2019, dated 2023).
pIC50: −log10 of the molar value.

Columns and labels:
[1] = in vitro; conditions: human
Method: (§1) Additional transporter Tier 1 test substrates/substances include but are not limited to: 1. […] TEA; 4. PAH; 5. Estrone-3-sulfate (E3S); 6. Glycylsarcosine. In some embodiments, microfluidic devices are treated with a substance followed by a 30 minute flushing cycle. In some embodiments, microfluidic devices under go 100 ul/hr of flow during transported function measurements.
(§2) Permeability from the vascular (V) to luminal (L) direction (Papp(V−L)) and permeability from the luminal to vascular direction (Papp(L−V)) were determined along with calculating the efflux ratio (Papp(V−L)/PapP(L−V)). […] However, the values were included in the calculations to calculate the efflux ratio.

[2] = Prediction of clearance versus clinical values; conditions: proximal tubule Kidney chip
[3] = system: Proximal Tubule Kidney-Chip; experiment: Creatinine and PAH secretion/transport in PT Kidney-Chip; type: in vitro ADME, human; conditions: for mass balance: compound loss (inlet/outlet) in chip system / active transport (B-A versus A-B transport): S1 and HS chips; for active transport (B-A versus A-B transport): Day 8 and Day 15
Method: (§3) To measure creatinine secretion in the Proximal Tubule Kidney-Chip, the vascular compartment is perfused with medium containing 1 mg/dL of human creatinine, while the secretion of creatinine in the top channel is measured from chip effluent. Exemplary assay flow rate (Proximal Tubule Kidney-Chip) during this assays is 60 μL/hour. In some embodiments, samples of effluent are collected in outlet reservoirs of the module. In preferred embodiments, there is no dilution of effluent when using an exemplary commercial kit, e.g. Invitrogen™ Creatine Urinary Detection Kit (Thermo Fisher EIACUN as described at thermofisher.com, downloaded Jun. 20, 2019).
(§4) In some embodiments, creatinine transport is determined in relation to chip configuration and low vs. high flow. Creatinine Secretion: Creatinine Loss (BI-BO); Creatinine filtration (TO/BO); Apical Creatinine (TO).
(§5) After activation, S1 (tall channel) chips and high shear chips are coated with Emulate ECM (i.e. Col IV+ Matrigel) on the side of the membrane (typically the top channel) intended for seeding with PT Kidney Cells. For monocultures, proximal tubular cells are seeded into the channel with the ECM coated membrane. For co-culturing PT Kidney Cells (system), glomerular microvascular endothelial cells are seeded on bottom channel and incubated for overnight. The following day, proximal tubular cells are seeded into the top channel (where the membrane is coated with ECM) and cultured for 2 days under static conditions, i.e. no fluid flow. Chips will be connected to a culture module at day 3 along with starting flow at 150 ul/h for both channels. Media should be replenished daily. At day 7, PAH and Creatinine will be dosed Apically under a 150 ul/h flow rate then A to B transport will be measured. Initial collection (after 2 hours) will be discard and during the following 22 hours effluent fluid (media) will be collected at desired times for measurements. At day 8, PAH and Creatinine will then be dosed Basally at 150 ul/h flow rate and B to A transport will be measured. Initial collection during 2 hours will be discarded and over the following 22 hours, the media will be collected for measurement. At day 9, the chip will be return to culture mode and cultured for additional […]. At day 14 PAH and Creatinine will be dosed Apically at 150 ul/h flow rate and A to B transport will be measured. Initial collection (2 hours) will be discard and during the following 22 hours the media will be collected for measurement. At day 15, PAH and Creatinine will be dosed Basally at 150 ul/h flow rate and B to A transport will be measured. Initial collection during 2 hours will be discarded and the following 22 hours, the media will be collected for measurement.

[4] = system: OCT1/MATE1/MATE2-K; experiment: in vitro; conditions: human, Kidney-Chip (Proximal Tubule), probe TEA
From the text: (§6) Substrates for transporters are termed “victim”.

[5] = system: OCT2/MATE1/MATE2-K; experiment: in vitro; conditions: human, Kidney-Chip (Proximal Tubule), probe Meformin (so in the source); metformin)
From the text: as §6

[6] = Creatinine and PAH secretion/transport in PT Kidney-Chip; type: in vitro ADME, human; conditions: human, Proximal Tubule Kidney-Chip; read-out: recovery of compound in the chip
Method: as §3, §4, §5

[7] = Material absorption into Kidney-Chip and perfusion manifold materials; type: physicochemical; conditions: REGM serum-free medium; 1-72 hr; glass control
From the text: In some embodiments, Material Absorption is one exemplary readout. When testing compounds added to a PT Kidney Chip, a determination of material absorption is made for that compound. The following is a exemplary method for determining material adsorption of a compound.
Study Conditions. Study approach: Each experiment includes a number of controls and test conditions. These allow us to tease out: Adsorption to the vial/well-plate. Absorption vs. adsorption to the tested material.
• 1. Dissolve the small molecule in an aqueous phase (medium) and incubate it with the tested material. • 2. Measure the concentration of small molecule remaining in the aqueous phase (using mass spec, plate reader). • 3. Curve-fit the measured data to quantify the absorption and diffusion parameters.

[8] = system: Proximal Tubule Kidney-Chip; experiment: Efflux ratio / permeability of probe substrates in Proximal Tubule Kidney-Chip
Method: as §1, §2

[9] = system: P-gp (digoxin); MATE1/MATE2-K (metformin); OAT1 (PAH); experiment: in vitro
[10] = system: Transwell kidney cell cultures; experiment: Efflux ratio of probe substrates in Transwell cultures; conditions: no inhibitor
[11] = system: proximal tubular epithelium; experiment: Nephrotoxicity testing in Proximal Tubule Kidney-Chip; type: cell-based, human
[12] = system: PT Kidney-Chip; experiment: Barrier function: inulin leakage in PT Kidney-Chip; type: in vitro ADME, human; conditions: inulin added to apical channel

With `Nc1ncnc2c1ncn2CCOCP(=O)(O)O` [Adefovir] the efflux ratio ([1]; Kidney-Chip Efflux Ratio) was 2.01 and the “predicted clearance value as % of clinical value” [2] was 85%.
In the case of `CN/C(=N/CCSCc1nc[nH]c1C)NC#N` [Cimetidine], the “reduction of PAH secretion” value ([3]; S1 chip, trend, statistically not significant) was 10%, the pIC50 [4] was 5.50 and the pIC50 [5] was 5.36.
In the case of `CN1CC(=O)NC1=N` [Creatinine, 2-amino-1-methyl-5H-imadazol-4-one], the recovery [6] was ~100%, the “mass balance: compound loss (inlet/outlet) in chip system” value [3] was “No significant creatinine loss” and the “active transport (B-A versus A-B transport)” value [3] was “significant active transport”. For the same molecule, the “Creatinine loss (BI-BO)” value ([3]; bottom channel) was 2.5 to 4 mM and the “creatinine filtration (TO/BO)” value ([3]; low flow) was “About 50%”.
For `C[C@H]1O[C@@H](O[C@H]2[C@@H](O)C[C@H](O[C@H]3[C@@H](O)C[C@H](O[C@H]4CC[C@@]5(C)[C@H](CC[C@@H]6[C@@H]5C[C@@H](O)[C@]5(C)[C@@H](C7=CC(=O)OC7)CC[C@]65O)C4)O[C@@H]3C)O[C@@H]2C)C[C@H](O)[C@@H]1O` [Digoxin], the “absorption into system materials (chip material, perfusion manifold material)” value [7] was “Minimal absorption”.
For `C[C@]12CC[C@@H]3c4ccc(OS(=O)(=O)O)cc4CC[C@H]3[C@@H]1CCC2=O` [Estrone-3-sulfate], the “absorption into system materials (chip material, perfusion manifold material)” value [7] was “Minimal absorption”.
With `CN(C)C(=N)N=C(N)N` [Metformin] the “efflux from the vascular channel to the luminal channel” value ([8]; day 8, S1 chip, 30 μL/hr, time-dependent) was “significant efflux”.
In the case of `Nc1ccc(C(=O)NCC(=O)O)cc1` [PAH, p-aminohippuric acid], the efflux ratio ([1]; Kidney-Chip Efflux Ratio) was 4.84, the efflux ratio ([1]; efflux ratio) was 2.4 to 2.7 and the “predicted clearance value as % of clinical value” [2] was 72%. For the same molecule, the efflux ratio [9] was 1.37, the recovery [6] was ~100% and the “mass balance: compound loss (inlet/outlet) in chip system” value [3] was “No significant PAH loss”. The “active transport (B-A versus A-B transport)” value [3] was “significant active transport”, the “PAH loss (BI-BO)” value ([3]; bottom channel) was 20 to 40 µg/mL and the “PHA transport (TO/BO)” value ([3]; low flow) was “about 20%”.
For `CCCN(CCC)S(=O)(=O)c1ccc(C(=O)O)cc1` [Probenecid], the “reduction of creatinine secretion” value ([3]; S1 chip, inhibitor incubated 3 hours, trend, statistically not significant) was 10%.
For `CC[N+](CC)(CC)CC` [TEA, Tetraethylammonium], the “Kidney-Chip Efflux Ratio” value ([8]; no inhibitor) was 6.95+/−0.60, the efflux ratio ([8]; transport studies comparing different flow rates, conditions tested) was > 2 and the “Transwell Efflux Ratio” value [10] was 1.11+/−0.06.
With `CC[C@@]1(O)C(=O)OCc2c1cc1n(c2=O)Cc2cc3c(CN(C)C)c(O)ccc3nc2-1` [Topotecan] the “absorption into system materials (chip material, perfusion manifold material)” value [7] was “Minimal absorption”.
For `CCCCC(=O)N(Cc1ccc(-c2ccccc2-c2nnn[nH]2)cc1)[C@H](C(=O)O)C(C)C` [Valsartan], the “absorption into system materials (chip material, perfusion manifold material)” value [7] was “Minimal absorption”.
With Gentamicin the “LDH in medium effluent” value ([11]; 10 mM, 48 hours) was “significant increase”, the “N-acetyl-beta-(D)-glucosaminidase activity (NAG) in medium effluent” value ([11]; 10 mM, 48 hours) was “significant increases” and the TUNEL assay ([11]; 10 mM, 48 hours) was “significant DNA damage”. For the same molecule, the “active caspase-3 in cells lysates” value ([11]; 10 mM, 48 hours) was “increase”, the “microscopic analysis of the proximal tubular epithelium” value ([11]; 10 mM, 48 hours) was “structural damage” and the “reactive oxygen species (ROS)” value ([11]; 10 mM, 48 hours) was “significant increases”. For the same molecule, the Morphology ([11]; dosing at Day 7 for 24 h, Gentamicin 10 mM, Cisplatin 100 μM) was “Damaged”.
With inulin the “Inulin leakage into the basal channel” value [12] was “no significant inulin leakage”.
